From US5693812A, “Polymorphic forms of an angiotensin II antagonist” (priority 1996, dated 1997)
“And” between values parts separate entries of the source, which are not always exact repeats. Equal entries are not always repeated. Structures can show the parent of a compound that is named as a salt. Values belong to the compound of their own block, whether it stands above or below them.

Tests used:
[1] = Solubility in crystallization solvent (water/methanol/isopropyl acetate); assay type: physicochemical; conditions: 1:2:2 water/methanol/isopropyl acetate
Method: Step K: Preparation of 3-[2'-(N-Benzyl)sulfonamidobiphenyl-4-yl]methyl-5,7-dimethyl-2-ethyl-3H-imidazo[4,5-b]pyridine potassium salt--(Forms I, Id and W) [drawing 13] In a 72-L four-necked flask fitted with an overhead stirrer and a reflux condenser, 3-[2'-(N-benzyl)sulfonamidobiphenyl-4-yl]methyl-5,7-dimethyl-2-ethyl-3H-imidazo[4,5-b]pyridine 1 (5.04 kg, 9.6 mol), methanol (14.5 L) and water (2.5 L) are mixed. The slurry is warmed to 62° C. under a nitrogen atmosphere and 1.94M potassium hydroxide (4.96 L, 9.61 mol) is added to the slurry at 62° C. over 1.5 hours to provide a homogeneous solution. Isopropyl acetate (13.83 L) is then added at 65° C. and the mixture is warmed to 70° C. The homogeneous solution is filtered at 70° C. to remove any particulates that are present. The filtrate is diluted with isopropyl acetate (1.3 L), methanol (0.6 L) and water (0.1 L). […] The homogeneous mixture is cooled to 52° C. over 2 hours, whereupon potassium salt seed of form "I" (140 g) is added. This mixture becomes cloudy after 30 min. The mixture is aged for 10 hours at 52° C. The white slurry is cooled to 48° C. over 1 hour and stirred for 3 hours. […] The K-salt is considered dry when <0.05% methanol and isopropyl acetate are detected by ^1 H NMR. […] The water content can be monitored by TG analysis. […] The crystal form is monitored by X-ray analysis. […]

AT1 receptors = conditions: background statement; cited from earlier work
AT2 binding sites = conditions: background statement; cited from earlier work
[2] = Thermogravimetric analysis (TGA) weight loss / water content; assay type: physicochemical; conditions: for TG of the potassium salt: dried product, Example 1 Step K
Method: (§1) The crystal forms were characterized and evaluated by measuring the heats of solution or solution calorimetry, solubility data, x-ray powder diffraction patterns (XRPD), differential scanning calorimetry (DSC) and thermogravimetric analysis (TGA). Heats of solution at 30° C. were obtained in the Setaram C-80 calvet calorimeter with sample size of 7-13 mg dissolved into 5 ml of 88% DMSO 12% water for a final concentration of 1.4-2.6 mg/ml. XRPD patterns were recorded using an automated Siemens X-ray diffractometer with copper tube K alpha radiation. DSC and TGA were conducted using a Perkin Elmer series 7 instrument with a scan rate of 10° C./min over the temperature range of 30°-300° C. Utilizing these techniques the thermodynamic stability of the polymorphs of 3-[2'-(N-benzoyl)sulfonamidobiphenyl-4-yl]methyl-5,7-dimethyl-2-ethyl-3H-imidazo[4,5-b]pyridine potassium salt was determined.
Step K: Preparation of 3-[2'-(N-Benzyl)sulfonamidobiphenyl-4-yl]methyl-5,7-dimethyl-2-ethyl-3H-imidazo[4,5-b]pyridine potassium salt--(Forms I, Id and W) [drawing 13] In a 72-L four-necked flask fitted with an overhead stirrer and a reflux condenser, 3-[2'-(N-benzyl)sulfonamidobiphenyl-4-yl]methyl-5,7-dimethyl-2-ethyl-3H-imidazo[4,5-b]pyridine 1 (5.04 kg, 9.6 mol), methanol (14.5 L) and water (2.5 L) are mixed. The slurry is warmed to 62° C. under a nitrogen atmosphere and 1.94M potassium hydroxide (4.96 L, 9.61 mol) is added to the slurry at 62° C. over 1.5 hours to provide a homogeneous solution. Isopropyl acetate (13.83 L) is then added at 65° C. and the mixture is warmed to 70° C. The homogeneous solution is filtered at 70° C. to remove any particulates that are present. The filtrate is diluted with isopropyl acetate (1.3 L), methanol (0.6 L) and water (0.1 L). […] The homogeneous mixture is cooled to 52° C. over 2 hours, whereupon potassium salt seed of form "I" (140 g) is added. This mixture becomes cloudy after 30 min. The mixture is aged for 10 hours at 52° C. The white slurry is cooled to 48° C. over 1 hour and stirred for 3 hours. Finally, the crystallization mixture is cooled to 0° C. at a rate of 1° C./12.5 min. and aged for 2 hours at 0° C. […] The solid is centrifuged at 0° C. and displacement-washed with a mixture of 2:2:1 cold (0° C.) isopropyl acetate/methanol/water (5.65 L) followed by isopropyl acetate (2.3 L). The solid is semi-dried to a TG of 10-15% by spin drying. The mother liquors contain 21 wt % of 3-[2'-(N-benzyl)sulfonamidobiphenyl-4-yl]methyl-5,7-dimethyl-2-ethyl-3H-imidazo[4,5-b]pyridine potassium salt. At this stage, the crystal form of the product is form "W". The product is powdered by passing through a screen (size=12). The solid is dried by passing dry nitrogen over the solid under vacuum at 22° C. for 5 hours to yield 4.55 kg of 3-[2'-(N-benzyl)sulfonamidobiphenyl-4-yl]methyl-5,7-dimethyl-2-ethyl-3H-imidazo[4,5-b]pyridine potassium salt as the form "I" with a purity of 99.7% (assay-HClO4 titration) and TG of 7-10%. Generally, the wet cake consists of residual water, methanol and isopropyl acetate. The K-salt is considered dry when <0.05% methanol and isopropyl acetate are detected by ^1 H NMR. The product is further powdered by passing the solid through a Quadro Comil (model 197s, screen size=1143 mm round impeller) to yield 4.5 kg. The product is dried to a TG of 4.6-5.5% by the passage of dry nitrogen over the solid under vacuum at 22° C. After 10 hours, 4.24 kg (78%) of the potassium salt as the form "I" is obtained with a TG of […] (99.7 wt % by titration). The water content can be monitored by TG analysis. The TG of the potassium salt of form "I" is 4.6-5.5%. The crystal form is monitored by X-ray analysis. When the potassium salt is over dried, the crystal form converts to form "Id" (TG<4.6%). […]

[3] = Crystal form stability in water (XRPD of remaining solid); assay type: physicochemical; conditions: room temperature, listed as I, potassium salt
Description: [13) S. R. Byre. "Solid State Chemistry of Drugs." Academic Press, New York, 1982.] […] Recrystallization of any of these lots from solvents like ethanol, methanol, isopropanol, acetone, etc. gave new crystal forms different from the original forms. […] Solubility in water at room temperature was one of these techniques. The equilibrium solubility in water, at room temperature for five polymorphs (Forms "B", "C", "D", "F", and "G") were the same (Table 1). When the remaining solids were filtered, air dried or vacuum dried overnight at room temperature the XRPD patterns had changed from the initial patterns and all were exactly the same. These experiments indicate that all of the crystal forms converted in water at room temperature to a new crystalline form designated […].
The remaining form "I" solid after equilibrium solubility studies in water was removed by filtration and vacuum dried overnight at room temperature.
After the discovery of form "I", form "D" could no longer be isolated in our laboratory. TGA studies indicate that form "I" of 3-[2'-(N-benzoyl)sulfonamidobiphenyl-4-yl]methyl-5,7-dimethyl-2-ethyl-3H-imidazo[4,5-b]pyridine potassium salt is a dihydrate (FIG. 4).

[4] = Crystal form stability on heating; assay type: physicochemical; conditions: about 216° C.
[5] = Equilibrium solubility in water at room temperature; assay type: physicochemical
[6] = Heat of solution by solution calorimetry (Setaram C-80); assay type: physicochemical
Method: The heat of solution of different crystal forms of 3-[2'-(N-benzoyl)sulfonamidobiphenyl-4-yl]methyl-5,7-dimethyl-2-ethyl-3H-imidazo[4,5-b]pyridine potassium salt were studied at 30° C. The heat of solution is a measure of the crystal lattice energy. […] Heats of solution had to be conducted in a solvent which dissolved the samples quickly without conversion to another polymorph. This really limited solvents which could be used. Dimethylsulfoxide was chosen for this reason. The heats of solution therefore have contributions from the lattice energy of the solid as well as heat of dilution of lattice water in dimethylsulfoxide. The calorimeter therefore produces a complex signal that has an exothermic contribution from the water and an additional contribution from the energy required to dissolve the crystal. […] Additional heats of solution were determined in a mixed solvent system of 88% dimethylsulfoxide and 12% water. This system was used to minimize the contribution of moisture to the heat of solution.
as §1, with “C.” for “C. Utilizing these techniques the thermodynamic stability of the polymorphs of 3-[2'-(N-benzoyl)sulfonamidobiphenyl-4-yl]methyl-5,7-dimethyl-2-ethyl-3H-imidazo[4,5-b]pyridine potassium salt was determined.”

[7] = Hygroscopicity studies / exposure to humidity; assay type: physicochemical

solubility of the potassium salt at 0° C. ([1]; 0° C.): 15000 µg/mL | solubility of the potassium salt at 60° C. ([1]; 60° C.): 174000 µg/mL
Structure (SMILES): CCc1nc2c(C)cc(C)nc2n1Cc1ccc(-c2ccccc2S(=O)(=O)NC(=O)c2ccccc2)cc1 [3-[2'-(N-benzoyl)sulfonamidobiphenyl-4-yl]methyl-5,7-dimethyl-2-ethyl-3H-imidazo[4,5-b]pyridine potassium salt]
affinity for AT1 receptors (AT1 receptors): high affinity | affinity for AT2 binding sites (AT2 binding sites): low affinity

% Weight Loss (Δ 30-150° C. by TGA) ([2]; 30-150° C., listed as I, potassium salt): 4.1-5.9% | hydration state ([2]; TGA, listed as I, potassium salt): dihydrate | TG of the potassium salt ([2]; listed as I): 4.6-5.5% and 6.1% and 7-10% | crystal form after suspension in water [3]: remained unchanged | crystal form after heating to about 216° C. [4]: converted to form H | Solubility in water ([5]; room temperature, Table I, potassium salt): 8000 ± 400 µg/mL | solubility thermodynamic ([5]; water, pH 7.8 printed for the other crystal forms): 8000 µg/mL | ΔH solution 88% DMSO/12% H2O ([6]; 88% DMSO/12% H2O, 30° C., listed as I, potassium salt): -25.68 ± 2.67 J/g | heat of solution, ranking ([6]; 88% dimethylsulfoxide and 12% water): most endothermic | ΔH solution DMSO at 30° C. ([6]; DMSO, 30° C., listed as I, potassium salt): -8.56 ± 1.64 J/g | heat of solution, ranking ([6]; dimethylsulfoxide, 30° C.): most endothermic | thermodynamic stability ([6]; from heats of solution and equilibrium solubility, listed as I, potassium salt): thermodynamically stable crystal form | hygroscopicity ([7]; relative humidities of 47% and above): non-hygroscopic
Structure (SMILES): CCc1nc2c(C)cc(C)nc2n1Cc1ccc(-c2ccccc2S(=O)(=O)NC(=O)c2ccccc2)cc1 [Form I, 3-[2'-(N-benzoyl)sulfonamidobiphenyl-4-yl]methyl-5,7-dimethyl-2-ethyl-3H-imidazo[4,5-b]pyridine potassium salt]

TG of the potassium salt ([2]; listed as Id): < 4.6% | reconversion upon exposure to ambient humidity ([7]; ambient humidity): reconverted to form "I"
Structure (SMILES): CCc1nc2c(C)cc(C)nc2n1Cc1ccc(-c2ccccc2S(=O)(=O)NC(=O)c2ccccc2)cc1 [Form Id, 3-[2'-(N-benzoyl)sulfonamidobiphenyl-4-yl]methyl-5,7-dimethyl-2-ethyl-3H-imidazo[4,5-b]pyridine potassium salt]
